According to PMC11323563, “Multiple levels of transcriptional regulation control glycolate metabolism in Paracoccus denitrificans” (mBio, 2024):

Columns and labels:
MGlcR = target: T1, MGlcR (Paracoccus denitrificans, UniProt A1BAC0); assay: fluorescence polarization, effector titration of 6FAM-Pglc-MGlcR complex; conditions: 0.1-100 mM effector, 750 nM MGlcR, 10 nM Pglc; pH 7.5, room temperature; effector decreasing DNA binding
T1 construct: gene Pden_4400; Ni-NTA purified
T1 sequence (A1BAC0 1-269): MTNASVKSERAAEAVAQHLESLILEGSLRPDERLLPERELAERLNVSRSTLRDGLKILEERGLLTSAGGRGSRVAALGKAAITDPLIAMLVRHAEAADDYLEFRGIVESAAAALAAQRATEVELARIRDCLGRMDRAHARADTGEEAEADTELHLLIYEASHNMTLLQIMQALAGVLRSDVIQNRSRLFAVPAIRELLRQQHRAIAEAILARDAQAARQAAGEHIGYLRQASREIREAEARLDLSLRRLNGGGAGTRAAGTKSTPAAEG

GlcR = target: T2, GlcR (Paracoccus denitrificans, UniProt A1BAC0); assay: EMSA of Pglc DNA-GlcR complex with effector; conditions: 0.5-2 mM effector; pH 7.0, 37 °C; effector decreasing DNA binding
T2 construct: gene Pden_4400; full length, pET16b His tag (cutting not mentioned), E. coli BL21 AI; Ni-NTA and size exclusion
T2 sequence (A1BAC0 1-269): T1 sequence (A1BAC0 1-269)

BhcR = target: T3, BhcR (Paracoccus denitrificans, UniProt A1B8Z4); assay: EMSA of Pbhc DNA-BhcR complex with effector; type: binding; conditions: 0.1-5 mM effector, pH 7.0, 37 °C
T3 construct: full length, pET16b His tag (cutting not mentioned), E. coli BL21 AI; Ni-NTA and size exclusion
T3 sequence (A1B8Z4 whole entry): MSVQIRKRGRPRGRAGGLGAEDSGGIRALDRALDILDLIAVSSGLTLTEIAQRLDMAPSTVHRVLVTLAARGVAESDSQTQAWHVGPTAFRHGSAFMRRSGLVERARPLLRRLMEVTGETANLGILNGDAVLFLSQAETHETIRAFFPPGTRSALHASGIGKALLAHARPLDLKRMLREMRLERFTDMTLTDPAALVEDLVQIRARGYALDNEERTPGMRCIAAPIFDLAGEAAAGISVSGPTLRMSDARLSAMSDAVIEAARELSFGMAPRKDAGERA

[1] = target: T4, GlcR (Paracoccus denitrificans DSM 413) (UniProt A1BAC0); assay: EMSA; conditions: EMSA: 20 mM K phosphate pH 7.0, 1 mM DTT, 5 mM MgCl2, 50 mM KCl, 15 ug/mL BSA, 50 ug/mL herring sperm DNA, 5% glycerol, 0.1% Tween20, DNA 0.025 pM, 37 C …
T4 sequence: T1 sequence (A1BAC0 1-269)

[2] = target: T5, MGlcR (MBP-GlcR) (Paracoccus denitrificans DSM 413) (UniProt A1BAC0); assay: fluorescence polarization
T5 sequence: T1 sequence (A1BAC0 1-269)

[3] = target: BhcR (Paracoccus denitrificans DSM 413) (UniProt A1B8Z4); assay: EMSA; conditions: EMSA: 20 mM K phosphate pH 7.0, 1 mM DTT, 5 mM MgCl2, 50 mM KCl, 15 ug/mL BSA, 50 ug/mL herring sperm DNA, 5% glycerol, 0.1% Tween20, DNA 0.025 pM, 37 C …
Sequence of BhcR (Paracoccus denitrificans DSM 413) (A1B8Z4 whole entry): as above

[4] = effector increasing DNA binding
[5] = EMSA: 20 mM K phosphate pH 7.0, 1 mM DTT, 5 mM MgCl2, 50 mM KCl, 15 ug/mL BSA, 50 ug/mL herring sperm DNA, 5% glycerol, 0.1% Tween20, DNA 0.025 pM, 37 C …

Compound: O=C(O)CO [glycolate]
- fluorescence polarization, effector titration of 6FAM-Pglc-MGlcR complex (MGlcR): Titration of the Pglc-MGlcR complex with increasing concentrations of glycolate demonstrated a notable decrease in binding
- EMSA of Pglc DNA-GlcR complex with effector (GlcR): DNA binding was decreased in the presence of glycolate

Compound: O=CC(=O)O [glyoxylate]
- EMSA of Pbhc DNA-BhcR complex with effector (BhcR; effector decreasing DNA binding): the interaction of BhcR with Pbhc was negatively affected by increasing concentrations of glyoxylate

Compound: O=C(O)C(=O)O [oxalate]
- EMSA of Pbhc DNA-BhcR complex with effector (BhcR; [4]): the DNA-binding interaction was positively affected by the presence of pyruvate or oxalate

Compound: CC(=O)C(=O)O [pyruvate]
- EMSA of Pbhc DNA-BhcR complex with effector (BhcR; [4]): the DNA-binding interaction was positively affected by the presence of pyruvate or oxalate

Compound: CAAGCTCTCCTCCCTTGGTCGAACGGCAGGCCCGTGTCCTGCCCTGCATTCTTGGTATAATTTTCAGACCACATTAGTCAATCGGTATTTTTCTGGACCGACACGCCCGTCCTGTGCTTACATGGCAGGGATCCGACAACCGCATGAGCGCCCATG (double strand) [Pglc 156 bp]
- binding [1]: binds

Compound: GCTCTCCTCCCTTGGTCGAACGGCAGGCCCGTGTCCTGCCCTGCATTCTTGGTATAATTTTCAGACCACATTAGTCAATCGGTATTTTTCTGGACCGACACGCCCGTCCTGTGCTTACATGGCAGGGATCCGACAACCGCATGAGCGCCC (double strand) [[6FAM]-Pglc]
- Kd [2, 5]: 225 nM
- binding [2, 5]: binds

Compound: GGAATGAAGATCGGGTTCTGGCTGGTCATGGCAATTCCTCCTGCGCTTGTGGACCAAGCTACGTTTTGCTGTCCATTGATGCAATTTTTCTGAAAAATATTTCGCAATCGCGGAAAAATGACCTAAAGTGTCGTGGAATCAGATCGTTGCTCTTTTCCAAAGCCAAAGAGTGATTTTCAACAAACTCAGAAAGTTGTCGAAAGGAAAAATTGAATGTCGGTTCAAATCCGCAAAAGGG (double strand) [Pbhc 238 bp]
- binding [3]: binds

Compound: [6FAM]-Pglc
- Kd ([2]; 10 nM DNA): 225 nM
